In ChEMBL document CHEMBL1649327, “In vitro antimicrobial activity and mutant prevention concentration of colistin against Acinetobacter baumannii” (Antimicrob Agents Chemother, 2010):
≈ marks a conversion by molar mass, not a printed value.

What was measured:
Acinetobacter baumannii [1] = test: Antimicrobial activity against Acinetobacter baumannii assessed as resistant isolate by broth dilution method; type: functional
Acinetobacter baumannii [2] = test: Antimicrobial activity against Acinetobacter baumannii assessed as susceptible isolate by broth dilution method; type: functional
Acinetobacter baumannii [3] = test: Antimicrobial activity against Acinetobacter baumannii by broth dilution method; type: functional
Acinetobacter baumannii [4] = test: Antimicrobial activity against Acinetobacter baumannii assessed as resistant isolate by broth dilution method in presence of beta-lactamase inhibitor Sulbactam; type: functional
Acinetobacter baumannii [5] = test: Antimicrobial activity against Acinetobacter baumannii by broth dilution method in presence of beta-lactamase inhibitor Sulbactam; type: functional
Acinetobacter baumannii [6] = test: Antimicrobial activity against Acinetobacter baumannii assessed as susceptible isolate by broth dilution method in presence of beta-lactamase inhibitor Sulbactam; type: functional
Acinetobacter baumannii [7] = test: Antimicrobial activity against Acinetobacter baumannii assessed as resistant isolate by broth dilution method in presence of cilastatin; type: functional
Acinetobacter baumannii [8] = test: Antimicrobial activity against Acinetobacter baumannii assessed as susceptible isolate by broth dilution method in presence of cilastatin; type: functional
Acinetobacter baumannii [9] = test: Antimicrobial activity against Acinetobacter baumannii by broth dilution method in presence of cilastatin; type: functional
Homo sapiens [10] = test: Cmax in patient at 225 mg, iv every 12 hrs for 2 days; type: ADME, organism-based; design: dose 225 mg, route intravenous; conditions: in vivo
Homo sapiens [11] = test: Cmax in patient at 225 mg, iv every 8 hrs for 2 days; type: ADME, organism-based; design: dose 225 mg, route intravenous; conditions: in vivo
Acinetobacter baumannii [12] = test: Antimicrobial activity against Acinetobacter baumannii assessed as mutant prevention concentration require for 90% of isolates; type: functional, organism-based
Acinetobacter baumannii [13] = test: Ratio of mutant prevention concentration for Acinetobacter baumannii to MIC for Acinetobacter baumannii; type: functional, organism-based
Acinetobacter baumannii [14] = test: Antimicrobial activity against Acinetobacter baumannii assessed as mutant prevention concentration; type: functional, organism-based

| Compound | Activity (Acinetobacter baumannii [1]) | Activity (Acinetobacter baumannii [2]) | MIC50 (Acinetobacter baumannii [3]) | MIC90 (Acinetobacter baumannii [3]) | other results |
| --- | --- | --- | --- | --- | --- |
| CO/N=C(\C(=O)N[C@@H]1C(=O)N2C(C(=O)[O-])=C(C[N+]3(C)CCCC3)CS[C@H]12)c1csc(N)n1 | 81.4% | 15.7% | – | – | – |
| NCC[C@H](O)C(=O)N[C@@H]1C[C@H](N)[C@@H](O[C@H]2O[C@H](CN)[C@@H](O)[C@H](O)[C@H]2O)[C@H](O)[C@H]1O[C@H]1O[C@H](CO)[C@@H](O)[C@H](N)[C@H]1O [AMIKACIN] | 71.4% | 28.6% | > 128 µg/mL | > 128 µg/mL | – |
| CC1(C)S[C@@H]2[C@H](NC(=O)[C@H](N)c3ccccc3)C(=O)N2[C@H]1C(=O)O [AMPICILLIN] | – | – | – | – | Activity (Acinetobacter baumannii [4]): 81.4%; MIC50 (Acinetobacter baumannii [5]): 128 µg/mL; MIC90 (Acinetobacter baumannii [5]): > 128 µg/mL |
| CCN1CCN(C(=O)N[C@@H](C(=O)N[C@@H]2C(=O)N3C(C(=O)O)=C(CSc4nnnn4C)CS[C@H]23)c2ccc(O)cc2)C(=O)C1=O [CEFOPERAZONE] | – | – | – | – | Activity (Acinetobacter baumannii [4]): 81.4%; Activity (Acinetobacter baumannii [6]): 17.2%; MIC50 (Acinetobacter baumannii [5]): > 128 µg/mL; MIC90 (Acinetobacter baumannii [5]): > 128 µg/mL |
| CC(C)(O/N=C(\C(=O)N[C@@H]1C(=O)N2C(C(=O)[O-])=C(C[n+]3ccccc3)CS[C@H]12)c1csc(N)n1)C(=O)O [CEFTAZIDIME] | 77.1% | 17.2% | > 128 µg/mL | > 128 µg/mL | – |
| O=C(O)c1cn(C2CC2)c2cc(N3CCNCC3)c(F)cc2c1=O [CIPROFLOXACIN] | 82.9% | 15.7% | – | – | – |
| C[C@@H](O)[C@H]1C(=O)N2C(C(=O)O)=C(SCCNC=N)C[C@H]12 [IMIPENEM ANHYDROUS] | – | – | – | – | Activity (Acinetobacter baumannii [7]): 75.7%; Activity (Acinetobacter baumannii [8]): 21.4%; MIC50 (Acinetobacter baumannii [9]): 16 µg/mL; MIC90 (Acinetobacter baumannii [9]): 128 µg/mL |
| C[C@H]1COc2c(N3CCN(C)CC3)c(F)cc3c(=O)c(C(=O)O)cn1c23.C[C@H]1COc2c(N3CCN(C)CC3)c(F)cc3c(=O)c(C(=O)O)cn1c23.O [LEVOFLOXACIN] | 32.8% | 38.6% | 4 µg/mL | 16 µg/mL | – |
| C[C@@H](O)[C@H]1C(=O)N2C(C(=O)O)=C(S[C@@H]3CN[C@H](C(=O)N(C)C)C3)[C@H](C)[C@H]12 [MEROPENEM] | 77.1% | 22.9% | 32 µg/mL (≈ 83.4 µM) | 64 µg/mL (≈ 167 µM) | – |
| CCN[C@@H]1C[C@H](N)[C@@H](O[C@H]2OC(CN)=CC[C@H]2N)[C@H](O)[C@H]1O[C@H]1OC[C@](C)(O)[C@H](NC)[C@H]1O [NETILMICIN] | 75.7% | 20% | > 128 µg/mL | > 128 µg/mL | – |
| CCN1CCN(C(=O)N[C@@H](C(=O)N[C@@H]2C(=O)N3[C@@H]2SC(C)(C)[C@@H]3C(=O)O)c2ccccc2)C(=O)C1=O [PIPERACILLIN] | 82.9% | 10% | 128 µg/mL (≈ 247 µM) | > 128 µg/mL | Activity (Acinetobacter baumannii [4]): 71.4%; Activity (Acinetobacter baumannii [6]): 17.2%; MIC50 (Acinetobacter baumannii [5]): > 128 µg/mL; MIC90 (Acinetobacter baumannii [5]): > 128 µg/mL |
| COLISTIN [listing 1 of 2 here] | – | – | – | – | Cmax (Homo sapiens [10]): 2930 ng/mL; Cmax (Homo sapiens [11]): 2930 ng/mL |
| COLISTIN [listing 2 of 2 here] | 0% | 100% | 1 µg/mL | 1 µg/mL | MPC (Acinetobacter baumannii [12]): > 128 µg/mL; Ratio (Acinetobacter baumannii [13]): 128; MPC (Acinetobacter baumannii [14]): > 128 µg/mL |
